Measurements taken from patent US7947726B2, “Non-steroidal ligands for the glucocorticoid receptor, and compositions thereof” (The Regents of the University of California, priority 2002, dated 2011).

Tests used:
[1] = biological target: T1, AR (Homo sapiens, UniProt P10275); assay: AR activation (max fold activation); type: cell-based; conditions: Table 4
T1 sequence (P10275 1-920): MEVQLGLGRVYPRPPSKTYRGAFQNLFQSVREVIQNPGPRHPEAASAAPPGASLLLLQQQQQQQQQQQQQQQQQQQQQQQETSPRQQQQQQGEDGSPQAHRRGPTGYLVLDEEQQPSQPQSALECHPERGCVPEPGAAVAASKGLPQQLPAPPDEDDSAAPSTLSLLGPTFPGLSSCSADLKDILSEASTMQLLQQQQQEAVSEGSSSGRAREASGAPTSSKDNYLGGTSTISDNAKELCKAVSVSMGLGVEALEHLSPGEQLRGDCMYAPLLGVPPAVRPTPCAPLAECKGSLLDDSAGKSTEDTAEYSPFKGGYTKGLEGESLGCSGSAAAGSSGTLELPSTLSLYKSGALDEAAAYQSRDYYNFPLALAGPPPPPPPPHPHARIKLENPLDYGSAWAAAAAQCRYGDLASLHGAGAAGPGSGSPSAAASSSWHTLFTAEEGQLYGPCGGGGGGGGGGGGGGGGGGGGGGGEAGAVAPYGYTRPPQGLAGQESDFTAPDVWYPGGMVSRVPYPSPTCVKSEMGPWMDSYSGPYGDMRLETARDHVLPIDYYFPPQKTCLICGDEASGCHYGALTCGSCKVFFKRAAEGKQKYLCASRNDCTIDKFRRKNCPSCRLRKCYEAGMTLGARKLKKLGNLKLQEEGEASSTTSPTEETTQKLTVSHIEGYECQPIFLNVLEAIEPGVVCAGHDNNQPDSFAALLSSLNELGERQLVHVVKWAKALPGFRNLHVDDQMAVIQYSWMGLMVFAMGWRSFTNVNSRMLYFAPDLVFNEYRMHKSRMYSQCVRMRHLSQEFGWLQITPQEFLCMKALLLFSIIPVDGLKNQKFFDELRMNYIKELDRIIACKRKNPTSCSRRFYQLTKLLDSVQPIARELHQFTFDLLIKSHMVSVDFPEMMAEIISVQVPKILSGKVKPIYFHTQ

[2] = tested on: NF-κB; assay: NF-κB repression luciferase assay in A549 cells; type: cell-based, human; conditions: Table 5, TNF-α-stimulated A549 cells
Excerpt: Plasmids for GR (human, pSG5 backbone), AP1-Luc (synthetic AP1 response element upstream of a firefly luciferase gene), TAT3-Luc (three copies of the tyrosine aminotransferase glucocorticoid response element upstream of a firefly luciferase gene), β-galactosidase (used as a transfection control), as well as two stable transfected cells lines: an A549 (human, lung carcinoma) cell line stably transfected with a κB response element upstream of a firefly luciferase gene, (R. M. Nissen et al., Genes Dev., 14(18):2314-29, (2000)) and a U2OS (human, osteosarcoma) stably transfected with rat GR (I. Rogatsky, et al., Mol. Cell. Biol., 1997, 17, 3181-3193) were a gift of Professor Keith Yamamoto (Department of Biochemistry, University of California, San Francisco).
For NF-κB repression assays, A549 cells stably transfected with a luciferase reporter were grown under the same conditions as CV-1 cells. 50,000 cells/well were plated into 96 well plates and incubated for 12 h at 37° C. Either TNF-α alone or mixed with various hormone dilutions in media were then added to the cells, which were then incubated for 8 hours. Procedures for lysis and luciferase assay were performed as previously described. Protein content was used as a control in this case and the recommended procedures using the BCA Protein Assay Kit (Roche) were followed.

| SMILES | AR max fold activation [1] | EC50 ([2]; Homo sapiens, read-out: Repression NF-KB pot (EC50)) [nM] | Repression NF-KB % max repression [2] [%] |
| --- | --- | --- | --- |
| Cc1cc(O)cc(C)c1C(O)C1CCCC2=Cc3c(cnn3-c3ccc(F)cc3)CC21C (stereo not drawn) [Compound 227, 4-{[1-(4-Fluoro-phenyl)-4a-methyl-4,4a,5,6,7,8-hexahydro-1H-benzo[f]indazol-5-yl]-hydroxy-methyl}-3,5-dimethyl-phenol] | 4.6 ± 1.6 | – | – |
| CC12Cc3cnn(-c4ccc(F)cc4)c3C=C1CCCC2C(O)c1cccc2[nH]ccc12 (stereo not drawn) [Compound 237, [1-(4-Fluoro-phenyl)-4a-methyl-4,4a,5,6,7,8-hexahydro-1H-benzo[f]indazol-5-yl]-(1H-indol-4-yl)-methanol] | – | 26.4 | 74 |
